This is an account of results in publication PMC5353780, “A novel benzo-heterocyclic amine derivative N30 inhibits influenza virus replication by depression of Inosine-5’-Monophospate Dehydrogenase activity” (Virology Journal, 2017).

What all share (assay): microbe, parasite or virus in culture
Details in all cases: for IC50: Influenza A virus, MDCK; for SI: TC50/IC50

One assay concerns A/fujiantongan/196/2009. It counts as cell-based, Influenza A virus (H3N2, amantadine-resistant).
The next assay relates to A/tianjinjinnan/15/2009. It counts as cell-based, Influenza A virus (H1N1, oseltamivir-resistant).
Assay [1] concerns A/liaoningzhenxing/1109/2010. It counts as cell-based, Influenza A virus (H1N1, oseltamivir-resistant).
For another assay, the system named is A/hunanzhuhui/1222/2010. It counts as cell-based, Influenza A virus (H3N2, amantadine-resistant).

As a reminder, the IC50 is the midpoint of a concentration-inhibition curve. A lower IC50 goes with greater potency.

SMILES strings stand for the structures. Where a name gives a salt, the structure may show the parent alone.

For `NC12CC3CC(CC(C3)C1)C2` [AH, amantadine hydrochloride], the IC50 in the assay with A/fujiantongan/196/2009 was found to be 78800 ± 3040 nM; in the assay on A/tianjinjinnan/15/2009, 18200 ± 240 nM; in assay [1], 10.13 ± 0.04 µM; with A/hunanzhuhui/1222/2010 it was 57200 ± 2230 nM.

On to `CCC(CC)O[C@@H]1C=C(C(=O)O)C[C@H](N)[C@H]1NC(C)=O` [OC, oseltamivir carboxylate], for which the 50% inhibitory concentration (IC50) amounted to 280 ± 10 nM with A/fujiantongan/196/2009, 2570 ± 100 nM with A/tianjinjinnan/15/2009, 3.2 ± 0.21 µM in assay [1] and 780 ± 20 nM with A/hunanzhuhui/1222/2010. Also, the SI with A/fujiantongan/196/2009 is over 178.57; in the assay on A/tianjinjinnan/15/2009, over 19.45; in assay [1], over 15.58; in the assay on A/hunanzhuhui/1222/2010 it was over 64.10.

For `NC(=O)c1ncn([C@@H]2O[C@H](CO)[C@@H](O)[C@H]2O)n1` [RBV, Ribavirin], the IC50 is 4420 ± 740 nM in the assay with A/fujiantongan/196/2009, 2540 ± 1250 nM in the assay with A/tianjinjinnan/15/2009 and 4.92 ± 3.02 µM in assay [1].

For the compound `O=[N+]([O-])c1ccc(CNc2ccc3ncsc3c2)cc1` [N30, N-(4-nitrophenylmethyl) benzothiazole-6-amine], the half-inhibitory concentration (IC50) turned out to be 1130 ± 430 nM in the assay on A/fujiantongan/196/2009, 1670 ± 490 nM in the assay with A/tianjinjinnan/15/2009, 3.43 ± 3.36 µM in assay [1] and 1760 ± 240 nM with A/hunanzhuhui/1222/2010. Further, the SI with A/fujiantongan/196/2009 amounted to 59.00; in the assay on A/tianjinjinnan/15/2009, 39.92; in assay [1], 19.44; in the assay with A/hunanzhuhui/1222/2010, 37.89.
